pIC50, pKi: −log10 of the molar value. The source made the active and inactive calls. The calls are words filed in the database; no cut-off is given here.
Experiments:
[1] = molecular target: Cholinesterase (Equus caballus) (UniProt P81908); assay: Inhibition of equine serum BChE at 20 uM using butylthiocholine iodide as substrate incubated for 10 mins followed by substrate addition by Ellman's method relative to control
Cholinesterase [2] = molecular target: T1, Cholinesterase (Equus caballus, UniProt P81908)
T1 sequence (P81908 whole entry): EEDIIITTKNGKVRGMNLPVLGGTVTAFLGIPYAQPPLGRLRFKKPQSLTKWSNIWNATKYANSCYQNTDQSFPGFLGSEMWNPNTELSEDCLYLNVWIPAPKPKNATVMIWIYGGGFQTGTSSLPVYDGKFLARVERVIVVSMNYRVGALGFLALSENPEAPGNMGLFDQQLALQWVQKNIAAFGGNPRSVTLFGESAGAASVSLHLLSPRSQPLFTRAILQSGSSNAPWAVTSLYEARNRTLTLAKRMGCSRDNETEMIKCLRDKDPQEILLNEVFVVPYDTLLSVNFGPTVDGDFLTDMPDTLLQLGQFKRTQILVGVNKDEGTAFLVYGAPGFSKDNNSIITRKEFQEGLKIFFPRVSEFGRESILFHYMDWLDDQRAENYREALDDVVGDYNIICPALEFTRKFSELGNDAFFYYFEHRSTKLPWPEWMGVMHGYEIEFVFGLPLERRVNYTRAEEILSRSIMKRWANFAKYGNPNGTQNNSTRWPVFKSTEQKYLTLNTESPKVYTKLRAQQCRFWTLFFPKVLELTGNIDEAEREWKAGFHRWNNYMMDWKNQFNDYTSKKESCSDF
Description: Inhibition of equine serum BChE using butylthiocholine iodide as substrate incubated for 10 mins followed by substrate addition by Ellman's method

Liver carboxylesterase [3] = molecular target: T2, Liver carboxylesterase (Sus scrofa, UniProt Q29550)
T2 sequence (Q29550 whole entry): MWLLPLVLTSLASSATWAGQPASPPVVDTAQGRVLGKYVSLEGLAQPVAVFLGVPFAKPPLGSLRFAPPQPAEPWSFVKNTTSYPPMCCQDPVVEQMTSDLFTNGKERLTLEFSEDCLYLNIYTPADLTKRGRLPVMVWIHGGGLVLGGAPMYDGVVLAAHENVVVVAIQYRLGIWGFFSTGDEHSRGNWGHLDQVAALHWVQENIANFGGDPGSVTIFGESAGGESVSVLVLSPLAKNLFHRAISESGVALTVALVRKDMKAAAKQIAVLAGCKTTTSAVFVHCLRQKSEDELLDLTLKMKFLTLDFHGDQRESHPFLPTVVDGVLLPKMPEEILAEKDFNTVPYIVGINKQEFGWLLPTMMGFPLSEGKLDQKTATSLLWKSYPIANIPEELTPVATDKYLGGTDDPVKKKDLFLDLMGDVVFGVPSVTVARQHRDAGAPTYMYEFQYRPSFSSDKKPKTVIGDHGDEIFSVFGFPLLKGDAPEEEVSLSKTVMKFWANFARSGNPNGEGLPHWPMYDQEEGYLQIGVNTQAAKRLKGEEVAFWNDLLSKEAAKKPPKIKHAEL
Description: Inhibition of porcine liver carboxylesterase using 4-nitrophenol acetate as substrate incubated for 10 mins followed by substrate addition by spectrophotometric method

Liver carboxylesterase [4] = molecular target: T2, Liver carboxylesterase; assay: in vitro; conditions: pig, porcine liver carboxylesterase, probe 4-nitrophenol acetate
Description: Inhibition of porcine liver carboxylesterase at 20 uM using 4-nitrophenol acetate as substrate incubated for 10 mins followed by substrate addition by spectrophotometric method relative to control

Acetylcholinesterase = Acetylcholinesterase (Homo sapiens, UniProt P22303)
Chain of Acetylcholinesterase (P22303 whole entry): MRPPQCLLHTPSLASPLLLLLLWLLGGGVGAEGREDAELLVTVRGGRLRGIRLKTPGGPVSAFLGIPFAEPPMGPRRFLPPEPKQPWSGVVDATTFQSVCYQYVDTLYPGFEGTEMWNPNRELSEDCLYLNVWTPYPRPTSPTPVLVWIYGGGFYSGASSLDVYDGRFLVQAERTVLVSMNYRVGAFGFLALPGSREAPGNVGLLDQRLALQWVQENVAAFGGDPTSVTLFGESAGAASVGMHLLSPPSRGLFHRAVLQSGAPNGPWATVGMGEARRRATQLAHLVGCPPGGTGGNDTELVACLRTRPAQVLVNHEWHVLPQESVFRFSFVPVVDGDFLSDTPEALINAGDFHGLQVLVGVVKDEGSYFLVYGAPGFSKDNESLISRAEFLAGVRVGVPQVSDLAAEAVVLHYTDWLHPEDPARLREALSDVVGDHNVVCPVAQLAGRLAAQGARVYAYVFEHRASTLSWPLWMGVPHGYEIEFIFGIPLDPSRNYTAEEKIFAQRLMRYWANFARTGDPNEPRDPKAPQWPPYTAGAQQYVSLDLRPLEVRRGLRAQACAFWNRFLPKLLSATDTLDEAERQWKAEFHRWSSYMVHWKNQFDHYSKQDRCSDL
Description: Inhibition of human erythrocyte AChE using acetylthiocholine iodide as substrate incubated for 10 mins followed by substrate addition by Ellman's method

Cholinesterase [5] = molecular target: T1, Cholinesterase; assay: Competitive inhibition of equine serum BChE using butylthiocholine iodide as substrate incubated for 10 mins followed by substrate addition by Lineweaver-Burk double-reciprocal plot analysis
[6] = molecular target: Cholinesterase (Equus caballus) (UniProt P81908); assay: Non-competitive inhibition of equine serum BChE using butylthiocholine iodide as substrate incubated for 10 mins followed by substrate addition by Lineweaver-Burk double-reciprocal plot analysis

Chain of Cholinesterase (Equus caballus) (P81908 whole entry): as the sequence (P81908 whole entry) above

C=Cc1oc2ccccc2c(=O)c1CN(C)/C=C/C(=O)OC
inhibition [1]: 18.4% | pIC50 (Cholinesterase [2]): < 4.70 | pIC50 (Liver carboxylesterase [3]): < 4.70 | inhibition at 10 min, 20 µM (Liver carboxylesterase [4]): 6.3%

C=Cc1oc2ccccc2c(=O)c1CN(Cc1ccccc1)/C(=C/C(=O)OC)C(=O)OC
pIC50 (Cholinesterase [2]): 4.86 | pIC50 (Liver carboxylesterase [3]): < 4.70 | inhibition at 10 min, 20 µM (Liver carboxylesterase [4]): 26.4% | pIC50 (Acetylcholinesterase): < 4.70

CCOc1cccc2c(=O)c3c(oc12)CCN(Cc1ccccc1)C3
inhibition [1]: 13.2% | pIC50 (Cholinesterase [2]): < 4.70 | pIC50 (Acetylcholinesterase): < 4.70

C=Cc1oc2c(OCC)cccc2c(=O)c1CN(/C=C/C(C)=O)Cc1ccccc1
pIC50 (Cholinesterase [2]): 4.30

O=c1c2c(oc3ccc(Br)cc13)CCN(Cc1ccccc1)C2
inhibition [1]: 3.3% | pIC50 (Cholinesterase [2]): < 4.70 | pIC50 (Liver carboxylesterase [3]): < 4.70 | inhibition at 10 min, 20 µM (Liver carboxylesterase [4]): 31.2% | pIC50 (Acetylcholinesterase): < 4.70

O=[N+]([O-])c1ccc(OP(=O)(O)Oc2ccc([N+](=O)[O-])cc2)cc1
inhibition [1]: inactive

C=Cc1oc2ccc(Br)cc2c(=O)c1CN(/C=C/C(C)=O)Cc1ccccc1
pIC50 (Cholinesterase [2]): 4.87 | pIC50 (Liver carboxylesterase [3]): < 4.70 | inhibition at 10 min, 20 µM (Liver carboxylesterase [4]): 4.6% | pIC50 (Acetylcholinesterase): < 4.70

C=Cc1oc2ccc(Br)cc2c(=O)c1CN(Cc1ccccc1)/C(=C/C(=O)OC)C(=O)OC
inhibition [1]: 21.9% | pIC50 (Cholinesterase [2]): < 4.70 | pIC50 (Liver carboxylesterase [3]): < 4.70 | inhibition at 10 min, 20 µM (Liver carboxylesterase [4]): 15.2% | pIC50 (Acetylcholinesterase): < 4.70

COC(=O)/C=C(\C(=O)OC)N1CCc2oc3ccccc3c(=O)c2C1
inhibition [1]: 7.5% | pIC50 (Cholinesterase [2]): < 4.70 | pIC50 (Liver carboxylesterase [3]): < 4.70 | inhibition at 10 min, 20 µM (Liver carboxylesterase [4]): 19.8%

C=Cc1oc2c(OCC)cccc2c(=O)c1CN(/C=C/C(=O)OC)Cc1ccccc1
inhibition [1]: 16.3% | pIC50 (Cholinesterase [2]): < 4.70 | pIC50 (Liver carboxylesterase [3]): < 4.70 | inhibition at 10 min, 20 µM (Liver carboxylesterase [4]): 25.9%

O=c1c2c(oc3ccccc13)CCN(Cc1ccccc1)C2
inhibition [1]: 13% | pIC50 (Cholinesterase [2]): < 4.70 | pIC50 (Acetylcholinesterase): < 4.70

C=Cc1oc2ccc(Br)cc2c(=O)c1CN(/C=C/C(=O)OC)Cc1ccccc1
pKi (Cholinesterase [5]): 5.81 | pIC50 (Cholinesterase [2]): 5.64 | pIC50 (Liver carboxylesterase [3]): < 4.70 | inhibition at 10 min, 20 µM (Liver carboxylesterase [4]): 22.4% | alphaKi [6]: 6.9 µM | pIC50 (Acetylcholinesterase): < 4.70

CCOc1cccc2c(=O)c3c(oc12)CCN(/C(=C/C(=O)OC)C(=O)OC)C3
inhibition [1]: 20.7% | pIC50 (Cholinesterase [2]): < 4.70 | pIC50 (Liver carboxylesterase [3]): < 4.70 | inhibition at 10 min, 20 µM (Liver carboxylesterase [4]): 3.5% | pIC50 (Acetylcholinesterase): < 4.70

C=Cc1oc2c(OCC)cccc2c(=O)c1CN(Cc1ccccc1)/C(=C/C(=O)OC)C(=O)OC
inhibition [1]: 11.2% | pIC50 (Cholinesterase [2]): < 4.70 | pIC50 (Liver carboxylesterase [3]): < 4.70 | inhibition at 10 min, 20 µM (Liver carboxylesterase [4]): 14.4%

CCOc1cccc2c(=O)c3c(oc12)CCN(C)C3
inhibition [1]: inactive | pIC50 (Liver carboxylesterase [3]): < 4.70 | inhibition at 10 min, 20 µM (Liver carboxylesterase [4]): 7.6% | pIC50 (Acetylcholinesterase): < 4.70

C=Cc1oc2ccccc2c(=O)c1CN(/C=C/C(C)=O)Cc1ccccc1
pKi (Cholinesterase [5]): 5.67 | pIC50 (Cholinesterase [2]): 5.32 | pIC50 (Liver carboxylesterase [3]): < 4.70 | inhibition at 10 min, 20 µM (Liver carboxylesterase [4]): 10% | alphaKi [6]: 9.14 µM | pIC50 (Acetylcholinesterase): < 4.70

C=Cc1oc2ccccc2c(=O)c1CN(/C=C/C(=O)OC)Cc1ccccc1
pKi (Cholinesterase [5]): 5.75 | pIC50 (Cholinesterase [2]): 5.20 | pIC50 (Liver carboxylesterase [3]): < 4.70 | inhibition at 10 min, 20 µM (Liver carboxylesterase [4]): 23.6% | alphaKi [6]: 1.94 µM | pIC50 (Acetylcholinesterase): < 4.70

C=Cc1oc2ccc(Br)cc2c(=O)c1CN(C)/C=C/C(=O)OC
inhibition [1]: 14.1% | pIC50 (Cholinesterase [2]): < 4.70 | pIC50 (Liver carboxylesterase [3]): < 4.70 | inhibition at 10 min, 20 µM (Liver carboxylesterase [4]): 10.5% | pIC50 (Acetylcholinesterase): < 4.70

C=Cc1oc2c(OCC)cccc2c(=O)c1CN(C)/C=C/C(=O)OC
inhibition [1]: inactive | pIC50 (Liver carboxylesterase [3]): < 4.70 | inhibition at 10 min, 20 µM (Liver carboxylesterase [4]): 7.9%

CN1CCc2oc3ccc(Br)cc3c(=O)c2C1
inhibition [1]: 4.2% | pIC50 (Cholinesterase [2]): < 4.70 | pIC50 (Acetylcholinesterase): < 4.70

COC(=O)/C=C(\C(=O)OC)N1CCc2oc3ccc(Br)cc3c(=O)c2C1
inhibition [1]: 4.3% | pIC50 (Cholinesterase [2]): < 4.70 | pIC50 (Liver carboxylesterase [3]): < 4.70 | inhibition at 10 min, 20 µM (Liver carboxylesterase [4]): 5.1% | pIC50 (Acetylcholinesterase): < 4.70

CN1CCc2oc3ccccc3c(=O)c2C1
inhibition [1]: inactive | pIC50 (Liver carboxylesterase [3]): < 4.70 | inhibition at 10 min, 20 µM (Liver carboxylesterase [4]): 6.4%
